“Also recorded” adds a separate entry of the source.
Tests used:
[1] = tested on: FOCM/TS metabolic profiles of individuals with ASD; test: FDA model evaluation of clinical trial treatment data (Type II error and discriminant score shift); type: in vivo, children; conditions: for Post-treatment Type II Error: PDF of post-treatment discriminant scores with respect to H0, 12 weeks (BH4: average of 8 and 16 weeks); for change in Type II error / correction of metabolic abnormalities (in words): comparison among treatments; for Effect Size (95% CI): median paired pre-to-post-treatment change in discriminant score, CI by bootstrap, 10,000 replications; for Change in Type II Error: pre- to post-treatment, with respect to H0
Procedure: MeCbl+LDFA Treatment Data. Subcutaneously injected MeCbl (75 μg/kg, once every three days) in combination with oral LDFA (400 μg, twice per day) was given to children with autism in a 12-week open-label trial. Included children were aged 2 to 7 years and met the diagnostic criteria for autism as defined by the DSM-IV in addition to having a Childhood Autism Rating Scales score greater than 30. Boys and girls made up 82% and 18% of participants in this study, respectively. The IRB at the University of Arkansas for Medical Sciences approved the protocol for this study.
BH4 Treatment Data. A 16-week open-label trial investigated the effects of orally administered BH4 (20 mg/kg, once per day) in children aged 2 to 6 years old with a previous diagnosis of ASD that was confirmed at the time of evaluation with DSM-IV criteria. […] Study participants were 90% males. Approval for this study was given by the IRB at the University of Texas Health Science Center at Houston, Tex. FOCM/TS markers were measured at 8 and 16 weeks following the onset of treatment in this trial; to maintain consistency with the other trials where markers were measured after 12 weeks, the averages of the measurements taken at 8 and 16 weeks were used.
HDFA Treatment Data. A double-blind placebo-controlled trial of HDFA (2 mg/kg per day up to a maximum of 50 mg daily, given orally) was administered over 12 weeks to children between 3 and 14 years of age. ASD diagnoses were made using the Autism Diagnostic Observation Schedule and/or Autism Diagnostic Interview—Revised, or by agreement between physician, psychologist, and speech therapist, or by a physician's diagnosis according to the Diagnostic and Statistical Manual of Mental Disorders, Fifth Edition with later confirmation by the investigators. All children were required to have documented language impairment. 78% of the treatment group were male while 80% of the placebo group were male. The protocol was approved by the IRB at the University of Arkansas for Medical Sciences. All data for participants receiving a placebo in the current analysis were provided.
Biochemical Measurements. Concentrations and ratios of metabolites in the FOCM and TS pathways were measured in each of the above studies, with fifteen measurements appearing in all four data sets. Six of these measures were associated with DNA methylation: methionine, S-adenosylmethionine (SAM), S-adenosylhomocysteine (SAH), the SAM/SAH ratio (an indicator of DNA methylation capacity), homocysteine, and adenosine. The remaining nine measures were precursors of glutathione or markers of redox metabolism: total cysteine, glutamylcysteine (Glu-Cys), cysteinylglycine (Cys-Gly), total and free reduced glutathione (tGSH and fGSH, respectively), oxidized glutathione (GSSG), the ratios of total and free reduced glutathione to oxidized glutathione (tGSH/GSSG and fGSH/GSSG, respectively; these are indicators of intracellular oxidative stress), and percent oxidized glutathione (a derived measure calculated as 2GSSG/[GSH+2GSSG]).
Fisher Discriminant Analysis. Individuals of the IMAGE study were separated into ASD and TD cohorts using Fisher discriminant analysis (FDA). FDA used the data matrix X of size n×m as input, where n study participants are each defined by m biochemical measurements. Sample information for study participant i was contained in row vector xi (size 1×m) and that participant's value for measurement j is indicated by xi,j. The input matrix X were considered as two matrices XASD and XTD taken to represent the separate samples for the ASD and TD cohorts, respectively, with XASD composed of nASD samples and XTD having nTD samples. […]

ASD-related symptoms = conditions: cited from earlier work

Compound: Nc1nc(=O)c2c([nH]1)NCC(CNc1ccc(C(=O)N[C@@H](CCC(=O)O)C(=O)O)cc1)N2C=O (mixture of isomers) [HDFA, high-dose folinic acid]
- Post-treatment Type II Error [1]: 49.5%
- 95% CI for the effect size relative to zero (in words) ([1]; bootstrap 95% CI of median change in discriminant score): contained zero
- change in Type II error / correction of metabolic abnormalities (in words) [1]: relatively small increase in Type II error
- Effect Size (95% CI) [1]: 0.17
- Change in Type II Error [1]: +17.2%

Compound: Nc1nc(=O)c2c([nH]1)NCC(CNc1ccc(C(=O)N[C@@H](CCC(=O)O)C(=O)O)cc1)N2C=O (mixture of isomers) [folinic acid, Folinic acid]
- outcome of treatment (cerebrospinal fluid, symptoms and behavior) (ASD-related symptoms; ASD): correct certain abnormalities of the cerebrospinal fluid and improve ASD-related symptoms and behavior

Compound: C[C@H](O)[C@H](O)[C@H]1CNc2nc(N)[nH]c(=O)c2N1 [BH4, tetrahydrobiopterin]
- Post-treatment Type II Error [1]: 41.1%
- Effect Size (95% CI) [1]: 0.73
- Change in Type II Error [1]: +40.8%

Compound: C/C1=C2/[N-][C@H]([C@H](CC(N)=O)[C@@]2(C)CCC(=O)NC[C@@H](C)OP(=O)([O-])O[C@H]2[C@@H](O)[C@@H](n3cnc4cc(C)c(C)cc43)O[C@@H]2CO)[C@]2(C)N=C(/C(C)=C3N=C(/C=C4N=C1[C@@H](CCC(N)=O)C\4(C)C)[C@@H](CCC(N)=O)[C@]\3(C)CC(N)=O)[C@@H](CCC(N)=O)[C@]2(C)CC(N)=O.[CH3-].[Co+3] [MeCbl, methylcobalamin]
- outcome of open-label and double-blind placebo-controlled studies (ASD-related symptoms; children with ASD): improvement in metabolism and ASD-related symptoms

Compound: methylcobalamin (MeCbl) in combination with low-dose folinic acid (LDFA) [MeCbl + LDFA]
- Post-treatment Type II Error [1]: 43.6%
- change in Type II error / correction of metabolic abnormalities (in words) [1]: greatest correction in ASD-related metabolic abnormalities; also recorded: largest increase in Type II error
- Effect Size (95% CI) [1]: 0.89
- Change in Type II Error [1]: +41.9%

Source: patent US11699530B2, “Use of multivariate analysis to assess treatment approaches” (RENSSELAER POLYTECHNIC INSTITUTE, priority 2018, dated 2023)
